In US7923446B2, “Biaryl sulfonamides and methods for using same” (Wyeth LLC, priority 2003, dated 2011):

Target: T1, purified full-length human recombinant aggrecanase-1 (rAgg1) (Homo sapiens, UniProt O75173)
T1 construct: purified full-length human recombinant aggrecanase-1
T1 sequence (O75173 213-837): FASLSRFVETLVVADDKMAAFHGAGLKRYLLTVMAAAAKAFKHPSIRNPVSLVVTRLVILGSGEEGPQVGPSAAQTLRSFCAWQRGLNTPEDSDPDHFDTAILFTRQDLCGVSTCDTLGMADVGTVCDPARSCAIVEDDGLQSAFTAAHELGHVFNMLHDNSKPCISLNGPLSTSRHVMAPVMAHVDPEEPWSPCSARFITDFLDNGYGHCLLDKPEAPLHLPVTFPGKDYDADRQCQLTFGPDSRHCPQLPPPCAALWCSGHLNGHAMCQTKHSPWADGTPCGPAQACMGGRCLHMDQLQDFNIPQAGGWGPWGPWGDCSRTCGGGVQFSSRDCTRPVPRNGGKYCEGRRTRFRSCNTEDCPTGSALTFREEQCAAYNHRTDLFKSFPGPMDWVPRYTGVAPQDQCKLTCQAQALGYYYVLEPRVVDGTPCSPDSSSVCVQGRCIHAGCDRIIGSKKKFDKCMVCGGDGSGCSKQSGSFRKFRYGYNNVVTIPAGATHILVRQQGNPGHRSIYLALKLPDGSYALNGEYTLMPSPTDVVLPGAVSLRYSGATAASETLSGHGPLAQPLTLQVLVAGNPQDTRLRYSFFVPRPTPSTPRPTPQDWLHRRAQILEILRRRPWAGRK
Assay: Aggrecanase-1 FRET Assay
Type: biochemical
Conditions: not given

SMILES | IC50 [nM]
CC(C)[C@@H](NS(=O)(=O)c1ccc(-c2ccc(OC(=O)Nc3ccc(Oc4ccccc4)cc3)cc2)cc1)C(=O)O [Example 6B, D-3-Methyl-2-[4′-(4-phenoxy-phenylcarbamoyloxy)-biphenyl-4-sulfonylamino]-butyric acid] | 600
CC(C)[C@@H](NS(=O)(=O)c1ccc(-c2ccc(OC(=O)Nc3cc4ccccc4o3)cc2)cc1)C(=O)O [Example 6S, N-[(4′-{[(1-benzofuran-2-ylamino)carbonyl]oxy}-1,1′-biphenyl-4-yl)sulfonyl]-D-valine] | 4500
CC(C)[C@@H](NS(=O)(=O)c1ccc(-c2ccc(OC(=O)Nc3ccc4ccccc4c3)cc2)cc1)C(=O)O [Example 6C, D-3-Methyl-2-[4′-(naphthalen-2-ylcarbamoyloxy)-biphenyl-4-sulfonylamino]-butyric acid] | 1100
CC(C)[C@@H](NS(=O)(=O)c1ccc(-c2ccc(OC(=O)Nc3ccc(F)cc3)cc2)cc1)C(=O)O [Example 6A, 2-[4′-(4-Fluoro-phenylcarbamoyloxy)-biphenyl-4-sulfonylamino]-3-methyl-butyric acid] | 3600

Same assay, conditions: rAgg1 5 μg/ml, substrate Abz-[…]-Dap(Dnp) 25 μM, 30° C., pH 7.5; read-out: IC50

SMILES | IC50 [nM]
CC(C)[C@@H](NS(=O)(=O)c1ccc(-c2ccc(OC(=O)c3cc4ccccc4o3)cc2)cc1)C(=O)O [Example 7B, Benzofuran-2-carboxylic acid 4′-(1-carboxy-2-methyl-propylsulfamoyl)-biphenyl-4-yl ester] | 345
CC(C)[C@@H](NS(=O)(=O)c1ccc(-c2ccc(COc3ccc4ccccc4n3)cc2)cc1)C(=O)O [Example 1E] | 600
CC(C)[C@@H](NS(=O)(=O)c1ccc(-c2ccc(COc3ccc(C(F)(F)F)cn3)cc2)cc1)C(=O)O [Example 1B, 3-Methyl-2-[4-(5-trifluoromethyl-pyridin-2-yloxymethyl)-biphenyl-4-sulfonylamino]-butyric acid] | 800
Cc1cc2ccccc2nc1OCc1ccc(-c2ccc(S(=O)(=O)N[C@@H](C(=O)O)C(C)C)cc2)cc1 [Example 1A, 3-Methyl-2-[4′-(3-methyl-quinolin-2-yloxymethyl)-biphenyl-4-sulfonylamino]-butyric acid] | 200
CC(C)[C@@H](NS(=O)(=O)c1ccc(-c2ccc(O)cc2)cc1C(F)(F)F)C(=O)O [Example 12B, 2-(4′-Hydroxy-3-trifluoromethyl-biphenyl-4-sulfonylamino)-3-methyl-butyric acid] | 67000
COc1cc(-c2ccc(S(=O)(=O)N[C@@H](C(=O)O)C(C)C)cc2)ccc1OCc1ccc2ccccc2c1 [Example 11A, 3-Methyl-2-[4′-(naphthalen-2-ylmethoxy)-3′-methoxy-biphenyl-4-sulfonylamino]-butyric acid] | 8900
CC(C)[C@@H](NS(=O)(=O)c1ccc(-c2ccc(COc3nc4ccccc4s3)cc2)cc1)C(=O)O [Example 1F, 2-[4′-(Benzothiazol-2-yloxymethyl)-biphenyl-4-sulfonylamino]-3-methyl-butyric acid] | 1500
Cc1c(COc2ccc(-c3ccc(S(=O)(=O)N[C@@H](C(=O)O)C(C)C)cc3)cc2)oc2ccccc12 [Example 2A, D-3-Methyl-2-[4′-(3-methyl-benzofuran-2-ylmethoxy)-biphenyl-4-sulfonylamino]-butyric acid] | 1000
CC(C)[C@@H](NS(=O)(=O)c1ccc(-c2ccc(OCc3cc4ccccc4o3)cc2)cc1)C(=O)O [Example 2B, D-2-[4′-(Benzofuran-2-ylmethoxy)-biphenyl-4-sulfonylamino]-3-methyl-butyric acid] | 1500
CC(C)[C@@H](NS(=O)(=O)c1ccc(-c2ccc(O)cc2)cc1OC(F)(F)F)C(=O)O [Example 12A, 2-(4′-Hydroxy-3-trifluoromethoxy-biphenyl-4-sulfonylamino)-3-methyl-butyric acid] | 200000
CC(C)[C@@H](NS(=O)(=O)c1ccc(-c2ccc(OCc3ccc4ccccc4c3)cc2)cc1)C(=O)O [Example 2C, D-3-Methyl-2-[4′-(naphthalen-2-ylmethoxy)-biphenyl-4-sulfonylamino]-butyric acid] | 800
CC(=O)NCc1ccc(-c2ccc(S(=O)(=O)N[C@@H](C(=O)O)C(C)C)cc2)cc1 [Example 5A, D-2-[4′-(Acetylamino-methyl)-biphenyl-4-sulfonylamino]-3-methyl-butyric acid] | 400
CC(C)[C@@H](NS(=O)(=O)c1ccc(-c2ccc(COc3cccc(C(=O)c4ccccc4)c3)cc2)cc1)C(=O)O [Example 1H] | 230
COc1cc(COc2ccc(-c3ccc(S(=O)(=O)N[C@@H](C(=O)O)C(C)C)cc3)cc2OC)cc(OC)c1 [Example 11B, 2-[4′-(3,5-Dimethoxy-benzyloxy)-3′-methoxy-biphenyl-4-sulfonylamino]-3-methyl-butyric acid] | 16700
Cc1cc(COc2ccc(-c3ccc(S(=O)(=O)N[C@@H](C(=O)O)C(C)C)cc3)cc2)c2ccccc2n1 [Example 2K, D-3-Methyl-2-[4′-(2-methyl-quinolin-4-ylmethoxy)-biphenyl-4-sulfonylamino]-butyric acid] | 500
Cc1c(C(=O)Oc2ccc(-c3ccc(S(=O)(=O)N[C@@H](C(=O)O)C(C)C)cc3)cc2)oc2ccccc12 [Example 7A, D-3-Methyl-benzofuran-2-carboxylic acid 4′-(1-carboxy-2-methyl-propylsulfamoyl)-biphenyl-4-yl ester] | 90
Cc1cc(OCc2ccc(-c3ccc(S(=O)(=O)N[C@@H](C(=O)O)C(C)C)cc3)cc2)c2ccccc2n1 [Example 1D, D-3-Methyl-2-[4′-(2-methyl-quinolin-4-yloxymethyl)-biphenyl-4-sulfonylamino]-butyric acid] | 400
CC(C)[C@@H](NS(=O)(=O)c1ccc(-c2ccc(OCc3ccccc3)cc2)cc1)C(=O)O [Example 2D, D-2-(4′-Benzyloxy-biphenyl-4-sulfonylamino)-3-methyl-butyric acid] | 5500
